# Measured values published in PubChem BioAssay AID743417 (Broad Institute, 2014).
# Results filed as inconclusive are left out.
# System: Clone20 osteoblast Shn3 3'UTR firefly luciferase, 24 h
# Test: Shn3 3'UTR reporter inhibitors, dose response, cell-based, Clone20 osteoblasts, luminescence, dry powder, set 2 (AID 743417)
row,Structure (SMILES),AC50
1,CC(C)(C)c1ccc(C(=O)NCCCN2CCN(CCCNC(=O)c3ccc(C(C)(C)C)cc3)CC2)cc1,4.84 µM
2,CC(C)C1C(=O)N(Cc2cn(CCC3OCCO3)nn2)CCS(=O)(=O)N1Cc1ccc(-c2ccc(Cl)cc2)cc1 (stereo unspecified),2.13 µM
3,CCCNC(=O)c1nnsc1S(=O)c1ccc(Cl)cc1 (stereo unspecified),1.26 µM
4,CN(C)CCCNc1c2ccccc2nc2ccccc12,3.22 µM
5,C=CC[C@H](CC(=O)N(CCO)Cc1ccccc1)C(=O)NC[C@H](OC(=O)[C@@H](CC=C)Cc1ccc(F)cc1)c1ccccc1,10.7 µM
6,C=CCC[C@H](Cc1ccc(F)cc1)C(=O)OC[C@@H](Cc1c[nH]c2ccccc12)NC(=O)[C@H](CC=C)CC(=O)N(CCO)Cc1ccccc1,8.66 µM
7,C=C1C(=O)c2sccc2C(c2ccc(OC)c(OC)c2)C1COC(C)=O (stereo unspecified),0.662 µM
8,COc1ccc(NC(=O)COc2ccc(N(C)S(=O)(=O)c3ccc(Cl)cc3)cc2)cc1OC,1.35 µM
9,COc1ccc(C2=NS(=O)(=O)N(C)C(C(=O)N3CCc4ccccc4C3)=C2)cc1OC,4.99 µM
10,CC(C)(C)C(=O)Nc1ccc(NC(=O)c2ccco2)nc1,1.17 µM
11,CCN(CC)S(=O)(=O)c1ccc(S(=O)(=O)Nc2c(C)nn(C)c2C)cc1,2.24 µM
12,CC(C)NC(=O)C1CCN(C(=O)c2cc3sccc3n2Cc2ccc(F)cc2)CC1,5.05 µM
13,COc1ccc(CN2CCC(N(CCc3ccccc3)Cc3ccccc3)CC2)c(OC)c1,8.1 µM
14,CN(c1cccc(Cl)c1)S(=O)(=O)c1cccc(C(=O)NCc2ccncc2)c1,< 0.26 µM
15,O=c1c2ccccc2cnn1-c1nc2ccccc2[nH]1,1.33 µM
16,C=C1CC(COc2ccc3c(C)c(Cl)c(=O)oc3c2)(c2ccccc2)OC1=O (stereo unspecified),4.82 µM
17,CC(C)C[C@H]1CN=C(N(C)C)N1CC1CCCCCC1,5.03 µM
18,CC(=O)OCCCNc1cc(Sc2ccc(Cl)cc2)c2nonc2c1[N+](=O)[O-],1.14 µM
19,COc1cccc(-n2c(C)nc3c(cnn3-c3ccc(Cl)cc3)c2=O)c1,0.391 µM
20,CC1C(=O)N(Cc2cn(CCC3OCCCO3)nn2)CCS(=O)(=O)N1Cc1ccc(-c2ccc(Cl)c(Cl)c2)cc1 (stereo unspecified),3.39 µM
21,COCCn1c(SCC(=O)/C=C2\N(C)c3ccccc3C2(C)C)nnc1-c1ccncc1,2.65 µM
22,CCCCCCCN1C(Nc2ccccc2)=NC[C@@H]1Cc1ccccc1,4.82 µM
23,Cc1ccnc2c1ccc1c(C)ccnc12,0.857 µM
24,Cc1cc(C(=O)NC2CCCc3c2cnn3-c2ccc(C)c(C)c2)n(C)n1 (stereo unspecified),< 0.26 µM
25,CC(=O)N1c2ccc(S(=O)(=O)N3CCC(C(=O)N4CCN(c5ccccc5F)CC4)CC3)cc2CC1C (stereo unspecified),5.41 µM
26,COc1ccccc1NC(=O)Nc1nc(C(N)Cc2ccc(C(F)(F)F)cc2)cs1 (stereo unspecified),10.3 µM

row,Structure (SMILES),AC50
1,CCCCC(=O)NC(c1ccc(OC)cc1)c1ccc2cccnc2c1O (stereo unspecified),2.28 µM
2,Nc1cc(Cl)c2nonc2c1[N+](=O)[O-],5.37 µM
3,CCCCCn1c(=N)n(CC(O)COc2ccccc2OC)c2ccccc21 (stereo unspecified),2.12 µM
4,COc1ccc(CC(N)c2csc(NC(=O)Nc3ccc(C(C)C)cc3)n2)cc1 (stereo unspecified),5.16 µM
5,C=C1C(=O)[C@]23C[C@H]1CCC2[C@@]1(C)C(C[C@@H]3O)[C@](C)(C(=O)OC)CC[C@@H]1OC(C)=O (stereo partly specified),2.14 µM
6,Cc1nc2ccc(NS(=O)(=O)c3ccc4c(c3)OCCO4)cc2s1,0.635 µM
7,COc1ccc(S(=O)(=O)N2CCN(c3cc(-c4ccccc4)nc4ncnn34)CC2)cc1,3.89 µM
8,O=C1c2c(O)ccc(O)c2C(=O)c2c(NCCNCCO)ccc(NCCNCCO)c21,0.658 µM
9,O=C(c1ccccc1)C(CN1CCCCC1)c1ccccc1 (stereo unspecified),2.41 µM
10,CCC1CN2CCc3cc(OC)c(OC)cc3C2CC1CC1NCCc2c1[nH]c1ccc(O)cc21 (stereo unspecified),< 0.26 µM
11,O=C(Nc1ccc(Oc2ccccc2)cc1)C1CCN(c2c3c(nc4ncnn24)CCC3)CC1,5.64 µM
12,Cc1cccc(C(=O)Nc2ccc(C(=O)/C=C/c3cccnc3)cc2)c1,6.23 µM
13,O=C(Nc1ccccc1)Nc1cc(OCC(F)(F)F)cc(OCC(F)(F)F)c1,6.4 µM
14,Cc1ccc(Nc2nc(NCc3ccco3)c3ccccc3n2)cc1,9.84 µM
15,CCOc1cccc(CNCCc2c(C)[nH]c3ccc(OC(F)(F)F)cc23)c1O,0.611 µM
16,O=C(c1nnsc1S(=O)c1ccc(Cl)cc1)N1CCOCC1 (stereo unspecified),0.93 µM
17,CCCC(=O)NC(c1ccc(OC)cc1)c1ccc2cccnc2c1O (stereo unspecified),1.18 µM
18,Cc1nc2c(OCc3ccc(Cl)cc3Cl)cccn2c1N(C)CC1CC1,10 µM
19,CCCCNS(=O)(=O)c1ccc(S(=O)(=O)NCc2ccncc2)cc1,2.4 µM
20,CC(Sc1nc2ccccc2c(=O)n1C)C(=O)Nc1ccc2c(c1)OCCO2 (stereo unspecified),1.94 µM
21,CCC(NC(=O)Nc1nnc(C(F)(F)F)s1)(C(F)(F)F)C(F)(F)F,4.15 µM
22,O=C(Nc1ccc(F)cc1)Nc1cc(OCC(F)(F)F)cc(OCC(F)(F)F)c1,2.46 µM
23,Oc1c(CN2CCN(c3ccccc3)CC2)cc(Br)c2cccnc12,1.92 µM
24,CC(=O)c1ccc(N2CCN(c3ccc(S(=O)(=O)NCCCN(C)C)cc3[N+](=O)[O-])CC2)cc1,3.78 µM
25,Cn1nc(CC(=O)Nc2ccc3c(c2)OCCO3)c2ccccc2c1=O,0.899 µM
26,CCC(C)c1ccc(S(=O)(=O)N2CCN(C(=O)c3ccc(Cl)c(S(=O)(=O)N4CCOCC4)c3)CC2)cc1 (stereo unspecified),5.32 µM

row,Structure (SMILES),AC50
1,Cc1ccc(C)c(NC(=O)CN(C)C(=O)c2cccc(S(=O)(=O)N3CCN(Cc4ccccc4)CC3)c2)c1,3.5 µM
2,Cc1cccc(/C=C(\c2nc3ccccc3[nH]2)S(=O)(=O)c2ccccc2)c1,4.5 µM
3,CC(=O)N1CCc2c(sc(NC(=O)c3ccc([N+](=O)[O-])o3)c2C(N)=O)C1,1.85 µM
4,CC(=O)N1CCN(C(=O)CCc2cc(C(C)(C)C)c(O)c(C(C)(C)C)c2)CC1,4.46 µM
5,COc1ccc(C(NC(C)=O)c2cc(Cl)c3cccnc3c2O)cc1 (stereo unspecified),1.61 µM
6,CCC1CCCCN1C(=O)c1cc(COc2ccc3ncccc3c2)on1 (stereo unspecified),0.46 µM
7,C=CCn1c(NCCc2ccccc2)nc2c1c(=O)n(C)c(=O)n2C,1.83 µM
8,O=C(Nc1ccc(F)cc1)c1nc(S(=O)(=O)Cc2ccccc2)ncc1Cl,3.38 µM
9,Cc1ccc(OCCN2CCN(c3ncnc4sc(C)c(C)c34)CC2)cc1,0.754 µM
10,O=[N+]([O-])c1c(NCCCO)cc(Sc2ccc(Cl)cc2)c2nonc12,5.63 µM
11,Cc1ccc(NC(=O)c2ccc(Cl)c(N3C(=O)C=CC3=O)c2)cc1,1.6 µM
12,COC(=O)C1=C(c2ccc(-c3ccccc3)c(F)c2)C[C@@H]2CC[C@H]1N2C(=O)N1CCCC1,6.06 µM
13,O=C(Nc1nc(-c2ccccc2)cs1)c1ccc(N2CCOCC2)c([N+](=O)[O-])c1,3.75 µM
14,CCC1CSC(Nc2ccc(C(=O)/C=C/c3ccc(OC)c(OC)c3)cc2)=N1 (stereo unspecified),4.47 µM
15,COc1cc2nc(N3CCN(c4cc(C)ccc4C)CC3)nc(N)c2cc1OC,5.44 µM
16,CCN(CC)S(=O)(=O)c1ccc(S(=O)(=O)N2CCCC(C(=O)NC3CC3)C2)cc1 (stereo unspecified),2.9 µM
17,Cn1c(SCc2cccc(Br)c2)nc2ccccc2c1=O,7.68 µM
18,CCOc1ccc(/C=C/[N+](=O)[O-])c2ccccc12,4.27 µM
19,O=C(Nc1nc(-c2ccccn2)cs1)c1ccccc1-n1cnnn1,1.71 µM
20,C=CCn1nc([N+](=O)[O-])nc1Sc1cccc2cccnc12,10.7 µM
21,CCN(CCCl)c1cc(CN(C)C)cc(NC(=O)c2ccc(C(=O)Nc3cc(CN(C)C)cc(N(CC)CCCl)c3)cc2)c1,2.65 µM
22,CC(=O)c1cn(CCOc2cc(C)ccc2C)c2ccccc12,1.18 µM
23,COc1ccc(/C=C/C(=O)NC(=S)NNC(=O)c2cnccn2)cc1,15.5 µM
24,C#CCn1c(=NC(=O)c2ccc(S(=O)(=O)N3CCc4ccccc4C3)cc2)sc2cc(S(N)(=O)=O)ccc21,1.29 µM
25,CC(C)c1ccc(NC(=O)Nc2nc(C(N)C3CCCCC3)cs2)cc1 (stereo unspecified),7.29 µM
26,CCc1c(C)nc2ncnn2c1N1CCN(S(=O)(=O)c2ccc(OC)cc2)CC1,1.16 µM

row,Structure (SMILES),AC50
1,Cc1cc(NC(c2ccc(Cl)cc2)c2ccc3cccnc3c2O)no1 (stereo unspecified),1.05 µM
2,COc1cc(SC)ccc1C(=O)Nc1nc(C)cs1,7.09 µM
3,O=C(Nc1cccc(C(F)(F)F)c1)Nc1ccc(N2CCCC2)c(S(=O)(=O)Nc2ccccc2Cl)c1,4.42 µM
4,Cc1cc(C)n2nc(SCC(=O)c3cc(C)n(-c4cc(C)on4)c3C)nc2n1,2.46 µM
5,CC(C)(C)c1cc(C(c2cccnc2)N2CCN(CCO)CC2)cc(C(C)(C)C)c1O (stereo unspecified),1.7 µM
6,CC[C@H]1CN2CCc3cc(OC)c(OC)cc3C2C[C@@H]1C[C@H]1NCCc2cc(OC)c(OC)cc21 (stereo partly specified),< 0.26 µM
7,C=CCC[C@H](Cc1ccc(F)cc1)C(=O)OC[C@H](Cc1c[nH]c2ccccc12)NC(=O)[C@H](CC=C)CC(=O)N(CCO)Cc1ccccc1,11.7 µM
8,COc1ccccc1-n1cc([C@@H]2C[C@H]3CN(c4ccccc4)C(=O)[C@]34CCCN24)cn1,1.46 µM
9,CCC12CN(S(=O)(=O)c3ccc(C)cc3)CC(CC)(CN(S(=O)(=O)c3ccc(C)cc3)C1)C2=O,3.48 µM
10,O=C(Sc1cccc2cccnc12)c1ccccc1Br,0.383 µM
11,CC1CCC/C=C/C(=O)c2c(O)cc(O)cc2CC(=O)O1 (stereo unspecified),4.12 µM
12,CC1(Cc2ccc(OC(F)(F)F)cc2)C(=O)Nc2c(Cl)ccc(Cl)c21 (stereo unspecified),25.7 µM
13,CC(C)C[C@H]1CNC(=S)N1CC1CCN(CC2CCC(C(C)(C)C)CC2)CC1 (stereo partly specified),4.05 µM
14,O=C(Nc1ccccc1Cl)/C(Cl)=C(\Cl)S(=O)c1ccccc1 (stereo unspecified),0.438 µM
15,CC(C)C[C@@H](CO)N(Cc1ccccc1)S(=O)(=O)N(Cc1ccccc1)[C@@H](CO)CC(C)C,11.4 µM
16,CN(Cc1ccccc1)C(=O)c1cccc(NC(=O)Cc2ccc([N+](=O)[O-])cc2)c1,16.8 µM
17,Cc1nn(Cc2ccc(Cl)cc2)c(C)c1NC(=O)c1cc(C(C)C)on1,6.2 µM
18,CCSc1nc2ccccc2n1C(=O)/C=C/c1ccc(OC)c(OC)c1,0.962 µM
19,C[C@@H]1CN([C@@H](C)CO)C(=O)c2cc(NC(=O)Nc3ccc(F)cc3)ccc2O[C@@H]1CN(C)Cc1ccc(Oc2ccccc2)cc1,9.38 µM
20,CN(Cc1nccs1)C(=O)c1cc(COc2cccc3cnccc23)on1,2.77 µM
21,COc1ccc(C(CCNCc2ccc(OC(C)C)cc2)c2ccccc2OC)cc1 (stereo unspecified),6.44 µM
22,CCC(C)C1NC(=O)C(NC(=O)C(CC(C)C)N(C)C(=O)C2CCCN2C(=O)C(C)O)C(C)OC(=O)C(Cc2ccc(OC)cc2)N(C)C(=O)C2CCCN2C(=O)C(CC(C)C)NC(=O)[C@H](C)C(=O)[C@H](C(C)C)OC(=O)CC1O (stereo partly specified),< 0.26 µM
23,CC[C@@H](C)[C@H](NC(=O)OC(C)(C)C)c1nnc(S(=O)(=O)Cc2cc(C)ccc2C)o1,5.77 µM
